Measurements as given in ChEMBL document CHEMBL4270599, “Synthesis of a 3'-C-ethynyl-β-d-ribofuranose purine nucleoside library: Discovery of C7-deazapurine analogs as potent antiproliferative nucleosides” (Eur J Med Chem, 2018).

What was measured:
Format in all cases: functional
SN12C [1] = assay: Cytotoxicity against human SN12C cells after 48 hrs by SRB assay
HOP-62 [2] = assay: Growth inhibition of human HOP62 cells assessed as cell growth at 10^-6 M incubated for 48 hrs by sulforhodamine B assay relative to control; settings: HOP-62, 48 h, read-out: Activity
SW-620 = assay: Cytotoxicity against human SW620 cells after 48 hrs by SRB assay; settings: SW-620, 48 h
NCI-H226 [3] = assay: Growth inhibition of human NCI-H226 cells assessed as cell growth at 10^-8 M incubated for 48 hrs by sulforhodamine B assay relative to control; settings: NCI-H226, 48 h, read-out: Activity
HOP-62 [4] = assay: Growth inhibition of human HOP62 cells assessed as cell growth at 10^-7 M incubated for 48 hrs by sulforhodamine B assay relative to control; settings: HOP-62, 48 h, read-out: Activity
Hs-578T [5] = assay: Growth inhibition of human Hs 578T cells assessed as cell growth at 10^-8 M incubated for 48 hrs by sulforhodamine B assay relative to control; settings: read-out: Activity
DU-145 [6] = assay: Growth inhibition of human DU145 cells assessed as cell growth at 10^-8 M incubated for 48 hrs by sulforhodamine B assay relative to control; settings: DU-145, 48 h, read-out: Activity
KM12 = assay: Growth inhibition of human KM12 cells assessed as cell growth at 10^-6 M incubated for 48 hrs by sulforhodamine B assay relative to control; settings: KM12, 48 h, read-out: Activity
OVCAR-4 = assay: Growth inhibition of human OVCAR4 cells assessed as cell growth at 10^-7 M incubated for 48 hrs by sulforhodamine B assay relative to control; settings: OVCAR-4, 48 h, read-out: Activity
T47D = assay: Cytotoxicity against human T47D cells after 48 hrs by SRB assay
M14 [7] = assay: Growth inhibition of human M14 cells assessed as cell growth at 10^-7 M incubated for 48 hrs by sulforhodamine B assay relative to control; settings: M14, 48 h, read-out: Activity
BT-549 = assay: Cytotoxicity against human BT549 cells after 48 hrs by SRB assay; settings: BT-549, 48 h
A498 = assay: Cytotoxicity against human A498 cells after 48 hrs by SRB assay; settings: A498, 48 h
NCI-H460 = assay: Growth inhibition of human NCI-H460 cells assessed as cell growth at 10^-7 M incubated for 48 hrs by sulforhodamine B assay relative to control; settings: NCI-H460, 48 h, read-out: Activity
A549 = assay: Growth inhibition of human A549/ATCC cells assessed as cell growth at 10^-6 M incubated for 48 hrs by sulforhodamine B assay relative to control; settings: A549, 48 h, read-out: Activity
SN12C [8] = assay: Growth inhibition of human SN12C cells assessed as cell growth at 10^-5 M incubated for 48 hrs by sulforhodamine B assay relative to control; settings: read-out: Activity
HCT-15 = assay: Growth inhibition of human HCT15 cells assessed as cell growth at 10^-5 M incubated for 48 hrs by sulforhodamine B assay relative to control; settings: HCT-15, 48 h, read-out: Activity
OVCAR-5 = assay: Growth inhibition of human OVCAR5 cells assessed as cell growth at 10^-5 M incubated for 48 hrs by sulforhodamine B assay relative to control; settings: OVCAR-5, 48 h, read-out: Activity
K562 = assay: Growth inhibition of human K562 cells assessed as cell growth at 10^-4 M incubated for 48 hrs by sulforhodamine B assay relative to control; settings: K562, 48 h, read-out: Activity
UACC-62 = assay: Growth inhibition of human UACC62 cells assessed as cell growth at 10^-8 M incubated for 48 hrs by sulforhodamine B assay relative to control; settings: UACC-62, 48 h, read-out: Activity
786-0 = assay: Cytotoxicity against human 786-0 cells after 48 hrs by SRB assay; settings: 786-0, 48 h
ACHN = assay: Growth inhibition of human ACHN cells assessed as cell growth at 10^-5 M incubated for 48 hrs by sulforhodamine B assay relative to control; settings: read-out: Activity
NCI-H226 [9] = assay: Growth inhibition of human NCI-H226 cells assessed as cell growth at 10^-5 M incubated for 48 hrs by sulforhodamine B assay relative to control; settings: NCI-H226, 48 h, read-out: Activity
DU-145 [10] = assay: Growth inhibition of human DU145 cells assessed as cell growth at 10^-5 M incubated for 48 hrs by sulforhodamine B assay relative to control; settings: DU-145, 48 h, read-out: Activity
Hs-578T [11] = assay: Growth inhibition of human Hs 578T cells assessed as cell growth at 10^-6 M incubated for 48 hrs by sulforhodamine B assay relative to control; settings: read-out: Activity
MOLT-4 = assay: Cytotoxicity against human MOLT4 cells after 48 hrs by SRB assay; settings: MOLT-4, 48 h
M14 [12] = assay: Cytotoxicity against human M14 cells after 48 hrs by SRB assay; settings: M14, 48 h
SNB-75 = assay: Growth inhibition of human SNB75 cells assessed as cell growth at 10^-8 M incubated for 48 hrs by sulforhodamine B assay relative to control; settings: SNB-75, 48 h, read-out: Activity
MDA-MB-435 = assay: Growth inhibition of human MDA-MB-435 cells assessed as cell growth at 10^-5 M incubated for 48 hrs by sulforhodamine B assay relative to control; settings: MDA-MB-435, 48 h, read-out: Activity
NCI-H522 = assay: Growth inhibition of human NCI-H522 cells assessed as cell growth at 10^-7 M incubated for 48 hrs by sulforhodamine B assay relative to control; settings: NCI-H522, 48 h, read-out: Activity
HT-29 = assay: Growth inhibition of human HT-29 cells assessed as cell growth at 10^-8 M incubated for 48 hrs by sulforhodamine B assay relative to control; settings: HT-29, 48 h, read-out: Activity
IGROV-1 = assay: Growth inhibition of human IGROV1 cells assessed as cell growth at 10^-7 M incubated for 48 hrs by sulforhodamine B assay relative to control; settings: IGROV-1, 48 h, read-out: Activity
NCI-H322M = assay: Cytotoxicity against human NCI-H322M cells after 48 hrs by SRB assay
[13] = read-out: pLC50 (the source's name) (converted)
[14] = read-out: LC50 (the source's name)

With `C#C[C@@]1(O)[C@@H](CO)O[C@@H](n2cc(I)c3c(N)ncnc32)[C@@H]1O` the GI50 (SN12C [1]; read-out: GI50) was 0.069 to 0.138 µM, the TGI (SN12C [1]; read-out: TGI) was over 100 µM and the CC50 (SN12C [1]; [13]) was over 100 µM. For the same compound, the TGI (SN12C [1]; read-out: pTGI (converted)) was over 100 µM, the growth at 1 µM (HOP-62 [2]) was 33 to 61% and the GI50 (SW-620; read-out: GI50) was 0.0572 to 0.059 µM. For the same compound, the TGI (SW-620; read-out: TGI) was over 100 µM, the CC50 (SW-620; [13]) was over 100 µM and the TGI (SW-620; read-out: pTGI (converted)) was over 100 µM. The growth at 0.01 µM (NCI-H226 [3]) was 84 to 97%, the growth at 0.1 µM (HOP-62 [4]) was 72 to 75% and the growth at 0.01 µM (Hs-578T [5]) was 78 to 87%. It also gave a growth at 0.01 µM (DU-145 [6]) of 91 to 94%, a growth at 1 µM (KM12) of 25 to 27% and a growth at 0.1 µM (OVCAR-4) of 87 to 91%. It also gave a TGI (T47D; read-out: TGI) of 0.051 to 0.315 µM, a GI50 (T47D; read-out: pGI50 (converted)) of under 0.01 µM and a CC50 (T47D; [13]) of over 100 µM. For the same compound, the growth at 0.1 µM (M14 [7]) was 67 to 75%, the GI50 (BT-549; read-out: GI50) was 0.175 to 0.384 µM and the TGI (BT-549; read-out: TGI) was 3.26 to 4.94 µM. The CC50 (BT-549; [13]) was over 100 µM, the GI50 (A498; read-out: GI50) was 0.211 to 0.453 µM and the CC50 (A498; [14]) was 4.69 to 6.4 µM. For the same compound, the TGI (A498; read-out: TGI) was 1.03 to 1.98 µM, the growth at 0.1 µM (NCI-H460) was 37 to 56% and the growth at 1 µM (A549) was 29 to 41%. For the same compound, the growth at 10 µM (SN12C [8]) was 5 to 7%, the growth at 10 µM (HCT-15) was 2 to 3% and the growth at 10 µM (OVCAR-5) was 2 to 6%. The growth at 100 µM (K562) was 7 to 8%, the growth at 0.01 µM (UACC-62) was 95% and the GI50 (786-0; read-out: GI50) was 0.236 to 0.334 µM. It also gave a TGI (786-0; read-out: TGI) of 3.24 µM, an LC50 (lethal concentration, 50% cell kill) (786-0; read-out: pLC50 (converted)) of over 100 µM and a TGI (786-0; read-out: pTGI (converted)) of 3.24 µM. The growth at 10 µM (ACHN) was 5%, the growth at 10 µM (NCI-H226 [9]) was 6 to 10% and the growth at 10 µM (DU-145 [10]) was 8 to 11%. It also gave a growth at 1 µM (Hs-578T [11]) of 38 to 53%, a GI50 (MOLT-4; read-out: GI50) of 0.0489 to 0.108 µM and a TGI (MOLT-4; read-out: TGI) of 0.831 µM. The CC50 (MOLT-4; [13]) was over 100 µM, the TGI (MOLT-4; read-out: pTGI (converted)) was 0.832 µM and the GI50 (M14 [12]; read-out: GI50) was 0.393 to 0.611 µM. It also gave a CC50 (M14 [12]; [14]) of 55.5 to 100 µM, a TGI (M14 [12]; read-out: TGI) of 8.47 to 10.7 µM and a growth at 0.01 µM (SNB-75) of 74 to 83%. It also gave a growth at 10 µM (MDA-MB-435) of 3 to 4%, a growth at 0.1 µM (NCI-H522) of 42 to 64% and a growth at 0.01 µM (HT-29) of 56 to 73%. It also gave a growth at 0.1 µM (IGROV-1) of 5 to 13%, a GI50 (NCI-H322M; read-out: GI50) of 0.405 to 0.683 µM and a TGI (NCI-H322M; read-out: TGI) of 7.49 to 42.8 µM. For the same compound, the CC50 (NCI-H322M; [13]) was over 100 µM.
